Results on 24 molecules are retold here after ChEMBL document CHEMBL1142397, “Antineoplastic agents. 536. New sources of naturally occurring cancer cell growth inhibitors from marine organisms, terrestrial plants, and microorganisms(1a,)” (J Nat Prod, 2008).

≈ marks a conversion by molar mass, not a printed value. Starred links: 1 amine or outer side, 2 acyl side, 3 side chain; linkers in the order of their positions; H or OH if unused. Positions of bridges follow the written chain, without caps; N, C: chain ends. Non-standard residues stand in square brackets, D forms with d. Residues, ends and D or L forms follow the SMILES beside them. Chains are numbered I, II in the order given. Actinocin(1to9) = Cc1c2oc3c(C)ccc(C(=O)[*:2])c3nc-2c(C(=O)[*:1])c(N)c1=O; NMeV = CN[C@H](C(=O)O)C(C)C; Sar = CNCC(=O)O

In assay [1] the test system is P388. The experiment in a line: Cytotoxicity against mouse P388 cells assessed as concentration required for 50% inhibition. It counts as functional.
Assay [2] deals with NCI-H460. Description: Cytotoxicity against human NCIH460 cells assessed as concentration required for 50% inhibition. It counts as functional.
The test system of assay [3] is OVCAR-3. Description: Cytotoxicity against human OVCAR-3 cells assessed as concentration required for 50% inhibition. It counts as functional.
The subject of assay [4] is SF-295. The experiment in a line: Cytotoxicity against human SF295 cells assessed as concentration required for 50% inhibition. It counts as functional.
The subject of assay [5] is KM-20L2. Description: Cytotoxicity against human KM20L2 cells assessed as concentration required for 50% inhibition. It counts as functional.
Assay [6] deals with DU-145. Description: Cytotoxicity against human DU145 cells assessed as concentration required for 50% inhibition. It counts as functional.
In assay [7] the test system is BXPC-3. The experiment in a line: Cytotoxicity against human BXPC3 cells assessed as concentration required for 50% inhibition. It counts as functional.
Assay [8] concerns HeLa. Description: Cytotoxicity against human HeLa cells. It counts as functional, cell-based.
In assay [9] the test system is A549. The experiment in a line: Cytotoxicity against human A549 cells. It counts as functional, cell-based.
Assay [10] relates to HL-60. Description: Cytotoxicity against human HL60 cells. It counts as functional, cell-based.
The subject of assay [11] is MCF7. Description: Cytotoxicity against human MCF7 cells assessed as concentration required for 50% inhibition. It counts as functional.
For assay [12], the system named is SF-268. The experiment in a line: Cytotoxicity against human SF268 cells assessed as concentration required for 50% inhibition. It counts as functional.

Consider `COc1c(C)c2c(c(O)c1C/C=C(C)/C=C/C(=O)O)C(=O)OC2`, for which the Activity in assay [1] worked out at 0.11 µg/mL.
In the case of `COc1cc([C@@H]2c3cc4c(c(O[C@@H]5O[C@H](CO)[C@@H](O)[C@H](O)[C@H]5O)c3C[C@H]3COC(=O)[C@@H]32)OCO4)cc(OC)c1OC`, the Activity in assay [2] is 0.28 µg/mL; in assay [3], 0.85 µg/mL; in assay [4], 0.27 µg/mL; in [5] it was above 1 µg/mL; in [1], 0.21 µg/mL; in assay [6], above 1 µg/mL. The Activity in assay [7] is above 1 µg/mL.
One may read the IC50 as the point on the concentration scale where inhibition reaches its midpoint. Read a high IC50 as lower potency. `CS[C@@H]1[C@H]2C(=O)N(C)[C@@H](C(C)C)C(=O)OC[C@@H](NC(=O)c3cnc4ccccc4n3)C(=O)N[C@@H](C)C(=O)N(C)[C@@H](C[S+]1[O-])C(=O)N(C)[C@@H](C(C)C)C(=O)OC[C@@H](NC(=O)c1cnc3ccccc3n1)C(=O)N[C@@H](C)C(=O)N2C` (stereo not given in full): the IC50 in assay [8], in assay [9] and in [10] was 0.2 µg/mL (≈ 0.179 µM) in each case.
For the molecule `CC[C@H](C)[C@@H]1NC(=O)[C@H](CC(C)C)NC(=O)[C@@H]2CCCN2C(=O)[C@H](C(C)C)NC(=O)[C@H](Cc2ccc(O)cc2)NC(=O)[C@@H]2CCCN2C(=O)[C@@H]2CCCN2C(=O)[C@H](CC(C)C)NC1=O` [AXINASTATIN 5] (cyclo(ILPPYVPL)), the Activity in [2] worked out at 0.82 µg/mL; in [11], 1.4 µg/mL; in [5], 0.28 µg/mL; in [1], 1.9 µg/mL; in [6], 0.87 µg/mL; in [12], 1.8 µg/mL. For the same molecule, the Activity in assay [7] came out at 0.68 µg/mL.
Regarding `CCCCCCCCCCCCCC(=O)O[C@H]1CC[C@H](NC(=O)[C@H](OC)[C@H](O)[C@@H](O)[C@H](O)/C=C/C(C)C)C(=O)NC1` [BENGAMIDE A], the Activity in assay [2] is 0.00054 µg/mL; in assay [3], 0.01 µg/mL; in [4], 0.001 µg/mL; in assay [5] it was 0.0049 µg/mL; in assay [1], 0.12 µg/mL; in assay [6], 0.0056 µg/mL. For the same molecule, the Activity in assay [7] came out at 0.027 µg/mL.
Consider `CCCCCCCCCCCCCC(=O)O[C@@H](c1cnco1)c1nc([C@@H](O)C[C@@H](O)[C@@H](O)[C@@H](C)O)co1` [BENGAZOLE A], for which the Activity in [2] came to 0.21 µg/mL; in [3] it was 0.28 µg/mL; in assay [4], 0.19 µg/mL; in assay [5], 0.0031 µg/mL; in assay [1], 0.14 µg/mL; in [6], 0.15 µg/mL. For the same molecule, the Activity in [7] stood at 0.14 µg/mL.
On to `CC(C)CCCCCCCCCCCC(=O)O[C@@H](c1cnco1)c1nc([C@@H](O)C[C@@H](O)[C@@H](O)[C@@H](C)O)co1` [BENGAZOLE B], for which the Activity was 0.2 µg/mL in [2]; 0.37 µg/mL in assay [3]; 0.19 µg/mL in assay [4]; 0.33 µg/mL in [5]; 0.053 µg/mL in [1]; 0.15 µg/mL in assay [6]. Also, in assay [7], the Activity is 0.18 µg/mL.
Take `CCCCCCCCCCCCCCC(=O)O[C@@H](c1cnco1)c1nc([C@@H](O)C[C@@H](O)[C@@H](O)[C@@H](C)O)co1` [BENGAZOLE E]: the Activity was 0.14 µg/mL in assay [2]; 0.16 µg/mL in [3]; 0.13 µg/mL in assay [4]; 0.18 µg/mL in [5]; 0.074 µg/mL in assay [1]; 0.11 µg/mL in assay [6]. Besides, the Activity in assay [7] is 0.081 µg/mL.
In the case of `COc1cc([C@@H]2c3cc4c(c(O)c3C[C@H]3COC(=O)[C@@H]32)OCO4)cc(OC)c1OC` [BETA-PELTATIN A], the Activity in [2] is 0.00077 µg/mL; in assay [3], 0.00055 µg/mL; in assay [4], 0.0004 µg/mL; in assay [5] it was 0.0076 µg/mL; in assay [1], 0.0031 µg/mL; in [6] it was 0.0021 µg/mL. In addition, in assay [7], the Activity came to 0.0012 µg/mL.
For `C[C@H]1CCC/C=C/[C@@H]2C[C@H](O)C[C@H]2[C@H](O)/C=C/C(=O)O1` [BREFELDIN A], the Activity worked out at 0.28 µg/mL in [2]; 0.047 µg/mL in assay [11]; 0.041 µg/mL in assay [3]; 0.38 µg/mL in [4]; 0.022 µg/mL in [5]; 0.23 µg/mL in assay [1]. The Activity in assay [6] was determined as 0.13 µg/mL; in [12], 0.21 µg/mL; in assay [7], 0.07 µg/mL.
For the molecule `CC[C@H]1CN2CCc3cc(OC)c(OC)cc3[C@@H]2C[C@@H]1C[C@H]1NCCc2cc(O)c(OC)cc21` [CEPHAELINE], the Activity in assay [2] turned out to be 0.022 µg/mL; in assay [3], 0.032 µg/mL; in [4], 0.018 µg/mL; in assay [5] it was 0.022 µg/mL; in assay [1] it was 0.0027 µg/mL; in assay [6], 0.0098 µg/mL. The Activity in [7] was 0.024 µg/mL.
Consider `Cc1c2oc3c(C)ccc(C(=O)N[C@@H]4C(=O)N[C@H](C(C)C)C(=O)N5CCC[C@H]5C(=O)N(C)CC(=O)N(C)[C@@H](C(C)C)C(=O)O[C@@H]4C)c3nc-2c(C(=O)N[C@@H]2C(=O)N[C@H](C(C)C)C(=O)N3CCC[C@H]3C(=O)N(C)CC(=O)N(C)[C@@H](C(C)C)C(=O)O[C@@H]2C)c(N)c1=O` [DACTINOMYCIN] (I: T[dV]P[Sar][NMeV] / II: T[dV]P[Sar][NMeV]; ester I:1-I:C, II:1-II:C; linker I:N-II:N via Actinocin(1to9)), for which, in assay [1], the Activity was below 0.001 µg/mL.
Take `O=c1c(-c2ccc(O)cc2)coc2cc(O)ccc12` [DAIDZEIN]: the Activity in [2] is above 10 µg/mL; in assay [11], 5.1 µg/mL; in assay [5], 8.8 µg/mL; in [6], 7.3 µg/mL; in assay [12] it was 4.4 µg/mL; in assay [7], 6.2 µg/mL.
For the molecule `NC1=N/C(=C2/CCNC(=O)c3[nH]ccc32)C(=O)N1` [DEBROMOHYMENIALDISINE], in assay [1], the Activity came to 5 µg/mL.
For the molecule `COc1cc([C@@H]2c3cc4c(cc3C[C@H]3COC(=O)[C@@H]32)OCO4)cc(OC)c1OC` [DESOXYPODOPHYLLOTOXIN], the Activity in assay [2] is 0.0018 µg/mL; in assay [3], 0.0027 µg/mL; in [4], 0.00056 µg/mL; in assay [5] it was 0.0014 µg/mL; in assay [1], 0.029 µg/mL; in assay [6] it was 0.0017 µg/mL. Further, the Activity in [7] amounted to 0.00044 µg/mL.
As for `CS[C@H]1SC[C@H]2C(=O)N(C)[C@@H](C(C)C)C(=O)OC[C@@H](NC(=O)c3cnc4ccccc4n3)C(=O)N[C@@H](C)C(=O)N(C)[C@@H]1C(=O)N(C)[C@@H](C(C)C)C(=O)OC[C@@H](NC(=O)c1cnc3ccccc3n1)C(=O)N[C@@H](C)C(=O)N2C` [ECHINOMYCIN], in assay [1], the Activity stood at 0.00147 µg/mL.
On to `O=c1c(-c2ccc(O)cc2)coc2cc(O)cc(O)c12` [GENISTEIN], for which the Activity amounted to 1.5 µg/mL in assay [2]; 2.5 µg/mL in assay [11]; 3.7 µg/mL in assay [5]; 1.9 µg/mL in assay [6]; 1.7 µg/mL in assay [12]; 2.5 µg/mL in [7].
Regarding `NC1=NC(=O)/C(=C2\CCNC(=O)c3[nH]c(Br)cc32)N1` [HYMENIALDISINE], the Activity in assay [1] was found to be 2.4 µg/mL.
As to `COc1cc([C@H]2c3cc4c(cc3C[C@H]3COC(=O)[C@H]32)OCO4)cc(OC)c1OC` [ISOPICRODEOXYPODOPHYLLOTOXIN], in assay [1], the Activity was below 0.01 µg/mL.
In the case of `C/C1=C\[C@H](C)C[C@H](C)OC(=O)C[C@H](c2ccc(O)cc2)NC(=O)[C@@H](Cc2c(Br)[nH]c3ccccc23)N(C)C(=O)[C@H](C)NC(=O)[C@@H](C)C1` [JASPAMIDE], the Activity in assay [1] worked out at 0.008 µg/mL.
In the case of `C\C(=C/C=C/C(C)=C1/C(=O)C[C@H]2[C@@]3(C)CCC(=O)C(C)(C)[C@@H]3CC[C@]12C)c1ccc(C)c(=O)o1` [STELLETIN A], the Activity was 0.752 µg/mL in [11], 0.012 µg/mL in assay [1] and 0.078 µg/mL in assay [7].
As for `CC(/C=C/C=C(\C)c1ccc(C)c(=O)o1)=C1/C(=O)C[C@H]2[C@@]3(C)CCC(=O)C(C)(C)[C@@H]3CC[C@]12C` [STELLETTIN B], the Activity in assay [1] turned out to be 0.037 µg/mL.
The same measure, in the same setting: under `N#Cc1cn([C@@H]2O[C@H](CO)[C@@H](O)[C@H]2O)c2ncnc(N)c12` [TOYOCAMYCIN] stands 0.0023 µg/mL; under `C[C@H]1[C@H](C)CC[C@]2(C(=O)O)CC[C@]3(C)C(=CC[C@@H]4[C@@]5(C)CC[C@H](O)C(C)(C)[C@@H]5CC[C@]43C)[C@H]12` [URSOLIC ACID], above 1 µg/mL.
